Key:
Test in all cases: DSF 100 kinase selectivity screen;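 further: compound tested at 20 µM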
Type in all cases: binding
[1] = target: T1, ~100 representative kinases (Homo sapiens, UniProt Q6PHR2); details: Protein ULK3; DSF; average of three replicates
T1 construct: Recombinant protein kinase domains with a concentration of 2 μM
T1 sequence (Q6PHR2 1-472): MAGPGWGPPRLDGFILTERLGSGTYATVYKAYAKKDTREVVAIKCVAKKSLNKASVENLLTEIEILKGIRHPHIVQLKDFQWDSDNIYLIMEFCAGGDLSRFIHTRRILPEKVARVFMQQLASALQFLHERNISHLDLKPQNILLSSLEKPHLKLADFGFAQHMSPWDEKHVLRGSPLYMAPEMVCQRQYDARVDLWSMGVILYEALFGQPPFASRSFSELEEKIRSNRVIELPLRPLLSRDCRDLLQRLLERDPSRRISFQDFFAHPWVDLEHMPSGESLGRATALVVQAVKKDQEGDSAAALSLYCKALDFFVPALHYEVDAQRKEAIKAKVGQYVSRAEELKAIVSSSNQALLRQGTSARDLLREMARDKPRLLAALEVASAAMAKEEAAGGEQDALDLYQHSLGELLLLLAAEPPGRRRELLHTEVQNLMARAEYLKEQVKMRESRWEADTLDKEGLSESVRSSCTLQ
In short: (§1)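 Each kinase domain, at 2 μM, is mixed with 20 μM test compound and SYPRO Orange in Hepes (20 mM, pH 7.5) with 500 mM NaCl. Temperature is then raised at 3°C/min and fluorescence-monitored unfolding yields the melting temperature change, ΔTm in degrees Celsius.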

[2] = target: T2, ~100 representative kinases (Homo sapiens, UniProt Q13627); details: Protein DYRK1A; average of three replicates
T2 construct: Recombinant protein kinase domains with a concentration of 2 μM
In short: as §1

[3] = target: T3, ~100 representative kinases (Homo sapiens, UniProt Q5VT25); details: Protein CDC42BPA; average of three replicates
T3 construct: Recombinant protein kinase domains with a concentration of 2 μM
T3 sequence (Q5VT25 whole entry, the tested form may be a part): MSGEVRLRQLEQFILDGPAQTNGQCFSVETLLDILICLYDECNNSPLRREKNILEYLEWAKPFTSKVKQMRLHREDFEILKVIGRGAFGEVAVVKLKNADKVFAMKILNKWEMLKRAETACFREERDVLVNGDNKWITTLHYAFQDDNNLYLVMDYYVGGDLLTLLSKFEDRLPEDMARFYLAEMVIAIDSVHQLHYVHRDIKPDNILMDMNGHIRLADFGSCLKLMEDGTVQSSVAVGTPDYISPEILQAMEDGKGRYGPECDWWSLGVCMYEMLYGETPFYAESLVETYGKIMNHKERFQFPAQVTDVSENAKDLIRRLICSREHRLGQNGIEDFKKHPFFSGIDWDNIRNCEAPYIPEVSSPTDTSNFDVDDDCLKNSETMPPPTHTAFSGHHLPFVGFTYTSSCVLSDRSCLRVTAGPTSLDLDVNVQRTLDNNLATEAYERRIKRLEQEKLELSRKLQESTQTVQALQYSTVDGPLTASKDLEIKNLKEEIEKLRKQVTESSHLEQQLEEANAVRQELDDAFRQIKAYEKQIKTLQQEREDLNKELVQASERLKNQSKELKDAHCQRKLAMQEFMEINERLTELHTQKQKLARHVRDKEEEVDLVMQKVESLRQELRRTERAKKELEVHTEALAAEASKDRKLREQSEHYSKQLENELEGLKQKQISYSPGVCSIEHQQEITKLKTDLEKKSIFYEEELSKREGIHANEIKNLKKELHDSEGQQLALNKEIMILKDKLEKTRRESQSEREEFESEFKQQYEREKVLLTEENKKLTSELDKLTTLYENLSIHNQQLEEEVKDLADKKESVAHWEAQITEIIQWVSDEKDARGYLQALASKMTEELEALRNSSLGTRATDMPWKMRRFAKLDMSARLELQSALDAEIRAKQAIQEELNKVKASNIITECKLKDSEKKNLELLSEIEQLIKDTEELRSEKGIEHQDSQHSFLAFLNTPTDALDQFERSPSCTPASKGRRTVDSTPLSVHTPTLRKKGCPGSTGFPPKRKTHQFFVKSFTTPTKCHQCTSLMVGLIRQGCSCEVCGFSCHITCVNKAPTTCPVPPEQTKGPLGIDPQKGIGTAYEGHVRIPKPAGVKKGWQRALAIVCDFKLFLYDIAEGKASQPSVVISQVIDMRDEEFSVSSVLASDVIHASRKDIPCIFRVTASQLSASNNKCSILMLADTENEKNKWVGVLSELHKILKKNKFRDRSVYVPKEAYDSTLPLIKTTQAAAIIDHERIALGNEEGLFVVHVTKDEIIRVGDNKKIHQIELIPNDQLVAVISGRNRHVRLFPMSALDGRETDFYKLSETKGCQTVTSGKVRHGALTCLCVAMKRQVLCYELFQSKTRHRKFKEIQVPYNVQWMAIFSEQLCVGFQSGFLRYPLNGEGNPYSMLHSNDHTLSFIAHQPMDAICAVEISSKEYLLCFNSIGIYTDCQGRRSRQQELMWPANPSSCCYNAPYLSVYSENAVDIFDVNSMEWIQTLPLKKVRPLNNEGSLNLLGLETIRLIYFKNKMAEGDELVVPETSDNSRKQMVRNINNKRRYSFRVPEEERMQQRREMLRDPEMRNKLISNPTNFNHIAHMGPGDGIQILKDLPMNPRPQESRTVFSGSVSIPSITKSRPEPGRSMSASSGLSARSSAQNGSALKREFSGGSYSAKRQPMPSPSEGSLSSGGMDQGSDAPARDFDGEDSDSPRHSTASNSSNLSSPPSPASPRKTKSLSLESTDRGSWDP
In short: as §1

[4] = target: T4, ~100 representative kinases (Homo sapiens, UniProt O96013); details: protein PAK4; average of three replicates
T4 construct: Recombinant protein kinase domains with a concentration of 2 μM
T4 sequence (O96013 whole entry, the tested form may be a part): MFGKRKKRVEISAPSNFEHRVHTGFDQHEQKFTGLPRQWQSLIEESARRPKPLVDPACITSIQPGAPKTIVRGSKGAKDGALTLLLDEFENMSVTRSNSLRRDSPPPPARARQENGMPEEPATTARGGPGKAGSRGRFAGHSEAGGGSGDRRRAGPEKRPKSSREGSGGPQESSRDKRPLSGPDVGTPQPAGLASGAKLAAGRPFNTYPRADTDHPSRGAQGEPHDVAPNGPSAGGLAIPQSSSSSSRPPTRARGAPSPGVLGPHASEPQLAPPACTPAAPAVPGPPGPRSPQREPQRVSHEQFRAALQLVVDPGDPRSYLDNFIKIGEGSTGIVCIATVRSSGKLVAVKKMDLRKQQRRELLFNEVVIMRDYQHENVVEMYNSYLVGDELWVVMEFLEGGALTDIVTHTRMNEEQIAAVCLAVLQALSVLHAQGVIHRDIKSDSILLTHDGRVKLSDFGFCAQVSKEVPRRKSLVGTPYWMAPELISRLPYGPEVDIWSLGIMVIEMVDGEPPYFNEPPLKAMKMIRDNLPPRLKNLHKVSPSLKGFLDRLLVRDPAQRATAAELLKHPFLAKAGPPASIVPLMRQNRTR
In short: as §1

[5] = target: T5, ~100 representative kinases (Homo sapiens, UniProt P16083); details: protein NQO2; average of three replicates
T5 construct: Recombinant protein kinase domains with a concentration of 2 μM
T5 sequence (P16083 1-231): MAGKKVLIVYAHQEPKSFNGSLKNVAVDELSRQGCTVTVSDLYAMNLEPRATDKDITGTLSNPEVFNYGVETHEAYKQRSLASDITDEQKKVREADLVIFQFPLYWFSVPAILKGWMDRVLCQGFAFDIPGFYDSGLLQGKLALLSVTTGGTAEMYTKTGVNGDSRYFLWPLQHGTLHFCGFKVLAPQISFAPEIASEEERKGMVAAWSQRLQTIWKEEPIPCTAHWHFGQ
In short: as §1

[6] = target: T6, ~100 representative kinases (Homo sapiens, UniProt Q8TF76); details: protein GSG2; average of three replicates
T6 construct: Recombinant protein kinase domains with a concentration of 2 μM
T6 sequence (Q8TF76 1-798): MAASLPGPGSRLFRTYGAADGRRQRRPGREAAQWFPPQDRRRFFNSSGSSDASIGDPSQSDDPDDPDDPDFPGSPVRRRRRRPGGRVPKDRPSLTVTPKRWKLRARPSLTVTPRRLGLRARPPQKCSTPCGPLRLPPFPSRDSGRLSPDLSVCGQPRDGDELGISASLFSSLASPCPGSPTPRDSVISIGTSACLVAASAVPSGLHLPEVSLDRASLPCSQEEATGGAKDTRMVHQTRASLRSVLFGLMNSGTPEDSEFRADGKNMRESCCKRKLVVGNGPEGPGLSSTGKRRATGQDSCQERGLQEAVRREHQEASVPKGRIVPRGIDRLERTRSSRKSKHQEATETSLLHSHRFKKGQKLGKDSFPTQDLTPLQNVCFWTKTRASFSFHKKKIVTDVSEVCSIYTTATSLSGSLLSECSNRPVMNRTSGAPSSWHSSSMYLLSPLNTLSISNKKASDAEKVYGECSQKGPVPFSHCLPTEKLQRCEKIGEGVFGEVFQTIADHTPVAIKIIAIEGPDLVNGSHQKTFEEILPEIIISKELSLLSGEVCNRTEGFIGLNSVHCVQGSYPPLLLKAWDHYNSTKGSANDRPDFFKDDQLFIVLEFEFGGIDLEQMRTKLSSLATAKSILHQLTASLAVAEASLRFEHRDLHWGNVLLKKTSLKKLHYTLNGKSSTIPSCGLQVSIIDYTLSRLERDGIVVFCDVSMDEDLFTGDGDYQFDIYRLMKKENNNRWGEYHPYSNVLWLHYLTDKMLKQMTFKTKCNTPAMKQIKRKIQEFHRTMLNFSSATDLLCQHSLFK
In short: as §1

[7] = target: T7, ~100 representative kinases (Homo sapiens, UniProt P49761); details: Protein CLK3; average of three replicates
T7 construct: Recombinant protein kinase domains with a concentration of 2 μM
T7 sequence (P49761 whole entry, the tested form may be a part): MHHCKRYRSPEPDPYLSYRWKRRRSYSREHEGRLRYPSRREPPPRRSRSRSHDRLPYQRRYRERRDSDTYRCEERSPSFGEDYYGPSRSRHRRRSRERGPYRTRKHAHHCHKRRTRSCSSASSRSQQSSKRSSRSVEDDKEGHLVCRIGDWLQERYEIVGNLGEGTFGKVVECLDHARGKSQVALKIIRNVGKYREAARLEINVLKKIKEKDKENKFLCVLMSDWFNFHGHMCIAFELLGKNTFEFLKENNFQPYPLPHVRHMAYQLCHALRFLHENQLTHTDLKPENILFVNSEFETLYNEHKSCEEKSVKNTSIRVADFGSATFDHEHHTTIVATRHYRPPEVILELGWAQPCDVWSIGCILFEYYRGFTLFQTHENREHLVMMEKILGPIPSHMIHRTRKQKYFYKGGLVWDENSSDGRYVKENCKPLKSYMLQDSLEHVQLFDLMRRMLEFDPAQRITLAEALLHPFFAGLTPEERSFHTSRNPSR
In short: as §1

[8] = target: T8, ~100 representative kinases (Homo sapiens, UniProt P45983); details: protein MAPK8; average of three replicates
T8 construct: Recombinant protein kinase domains with a concentration of 2 μM
T8 sequence (P45983 whole entry, the tested form may be a part): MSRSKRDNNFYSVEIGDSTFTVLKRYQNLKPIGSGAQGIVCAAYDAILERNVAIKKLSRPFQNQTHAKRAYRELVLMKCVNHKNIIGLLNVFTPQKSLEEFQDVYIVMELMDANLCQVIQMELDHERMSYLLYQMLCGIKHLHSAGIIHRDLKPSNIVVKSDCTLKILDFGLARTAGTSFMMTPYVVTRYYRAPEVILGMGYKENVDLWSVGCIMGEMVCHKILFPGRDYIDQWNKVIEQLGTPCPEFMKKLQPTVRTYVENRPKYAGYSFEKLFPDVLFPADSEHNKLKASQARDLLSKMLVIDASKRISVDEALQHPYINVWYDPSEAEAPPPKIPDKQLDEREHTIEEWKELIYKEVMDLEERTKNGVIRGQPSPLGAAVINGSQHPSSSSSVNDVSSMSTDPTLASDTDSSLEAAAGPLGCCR
In short: as §1

[9] = target: T9, ~100 representative kinases (Homo sapiens, UniProt P29317); details: Protein EPHA2; average of three replicates
T9 construct: Recombinant protein kinase domains with a concentration of 2 μM
T9 sequence (P29317 24-976): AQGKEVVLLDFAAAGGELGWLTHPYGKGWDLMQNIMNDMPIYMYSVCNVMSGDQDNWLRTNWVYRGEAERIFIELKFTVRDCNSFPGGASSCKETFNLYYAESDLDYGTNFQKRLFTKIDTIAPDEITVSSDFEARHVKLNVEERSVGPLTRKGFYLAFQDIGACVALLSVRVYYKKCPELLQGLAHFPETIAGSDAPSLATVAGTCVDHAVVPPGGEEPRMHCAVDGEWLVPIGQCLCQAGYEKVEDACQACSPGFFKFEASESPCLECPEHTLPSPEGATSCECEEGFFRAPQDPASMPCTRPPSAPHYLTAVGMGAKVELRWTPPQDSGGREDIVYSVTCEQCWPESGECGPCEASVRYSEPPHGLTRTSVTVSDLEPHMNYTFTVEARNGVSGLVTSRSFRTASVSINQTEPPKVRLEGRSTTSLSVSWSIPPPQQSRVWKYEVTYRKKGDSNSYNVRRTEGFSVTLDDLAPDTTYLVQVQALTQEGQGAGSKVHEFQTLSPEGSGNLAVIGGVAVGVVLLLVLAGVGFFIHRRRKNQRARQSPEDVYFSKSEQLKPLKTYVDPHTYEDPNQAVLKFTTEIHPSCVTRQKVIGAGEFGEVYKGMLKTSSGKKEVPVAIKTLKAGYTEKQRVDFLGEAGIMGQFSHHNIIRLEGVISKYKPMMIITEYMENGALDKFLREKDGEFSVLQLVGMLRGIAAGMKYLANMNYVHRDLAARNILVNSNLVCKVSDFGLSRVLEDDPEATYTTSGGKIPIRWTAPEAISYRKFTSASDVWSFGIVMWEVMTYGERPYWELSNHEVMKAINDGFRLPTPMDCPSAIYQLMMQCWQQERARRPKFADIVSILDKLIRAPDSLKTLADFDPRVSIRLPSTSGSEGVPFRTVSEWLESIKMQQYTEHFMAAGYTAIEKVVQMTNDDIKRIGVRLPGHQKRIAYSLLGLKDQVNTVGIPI
In short: as §1

dTm [1] [K] | dTm [2] [K] | dTm [3] [K] | dTm [4] [K] | dTm [5] [K] | dTm [6] [K] | dTm [7] [K] | dTm [8] [K] | dTm [9] [K] | Structure (SMILES)
8.50 | 1.28 | -1.22 | -0.00913 | -1.88 | -2.84 | 1.58 | 1.59 | 4.60 | O=C(Nc1cccc(-c2c[nH]c3ncnc(N4CCOCC4)c23)c1)C1(C(=O)Nc2ccc(F)cc2F)CC1 [Compound 23]
10.21 | 7.39 | -1.13 | -0.11 | -1.06 | -3.30 | 5.99 | 3.09 | 6.64 | Cc1cc(NC(=O)C2(C(=O)Nc3cccc(-c4c[nH]c5ncnc(N6CCOCC6)c45)c3)CC2)ccc1F [Compound 20]
0.92 | -1.38 | 0.50 | 0.48 | -0.27 | -3.39 | 3.34 | 0.84 | 4.11 | CC(=O)N1CCN(c2nc(Cl)nc3[nH]cc(-c4cccc(NC(=O)Nc5cc(C(C)(C)C)nn5-c5ccc(C)cc5)c4)c23)CC1 [Compound 31]
3.31 | -0.88 | -0.90 | 0.99 | -2.13 | -1.48 | 0.98 | 2.19 | 3.21 | Cc1cc(NC(=O)C2(C(=O)Nc3ccc(F)cc3)CC2)cc(-c2c[nH]c3ncnc(N4CCOCC4)c23)c1 [Compound 6]
7.80 | 4.34 | -0.16 | -0.15 | 1.99 | -0.45 | 2.26 | 1.81 | 5.20 | O=C(Nc1ccccc1)C1(C(=O)Nc2cccc(-c3c[nH]c4ncnc(N5CCOCC5)c34)c2)CC1 [Compound 12]
5.66 | 1.71 | 0.14 | 1.11 | -0.18 | -2.45 | 5.09 | 3.53 | 4.87 | O=C(Nc1cccc(-c2c[nH]c3ncnc(N4CCOCC4)c23)c1)C1(C(=O)Nc2ccc(F)c(Br)c2)CC1 [Compound 19]
0.27 | -4.19 | 0.77 | 0.13 | 0.13 | -1.55 | 3.71 | 1.42 | 3.08 | Cc1ccc(-n2nc(C(C)(C)C)cc2NC(=O)Nc2cccc(-c3c[nH]c4nc(Cl)nc(N5CCOCC5)c34)c2)cc1 [Compound 30]
7.06 | 7.41 | -0.65 | 0.80 | 0.00214 | -2.39 | 16.34 | 3.58 | 14.41 | CC(C)(C)c1cc(NC(=O)Nc2cccc(-c3c[nH]c4ncnc(N5CCOCC5)c34)c2)n(-c2ccc3ncccc3c2)n1 [Compound 28]
1.79 | -0.0472 | -0.72 | 1.08 |  | -0.09 | 1.84 | 0.60 | 0.40 | CCNc1nc(Nc2cc(F)c(C(=O)N3CCOCC3)cc2OC)ncc1C(F)(F)F [GNE-7915]
5.81 | 0.32 | -1.26 | 0.55 | -2.54 | -2.96 | 1.62 | 2.36 | 1.56 | O=C(Nc1cccc(-c2c[nH]c3ncnc(N4CCOCC4)c23)c1)C1(C(=O)Nc2cccc3c2CCC3)CC1 [Compound 11]
9.54 | 6.34 | -0.25 | 0.49 | 0.34 | -3.25 | 4.42 | 3.23 | 4.93 | O=C(Nc1cccc(-c2c[nH]c3ncnc(N4CCOCC4)c23)c1)C1(C(=O)Nc2ccc(F)c(Cl)c2)CC1 [Compound 18]
7.72 | 3.30 | -1.21 | -0.55 | 0.0157 | -0.69 | 2.40 | 0.90 | 7.05 | Cc1ccc(NC(=O)C2(C(=O)Nc3cccc(-c4c[nH]c5ncnc(N6CCOCC6)c45)c3)CC2)cc1 [Compound 14]

Structure (SMILES) | dTm [1] [K] | dTm [2] [K] | dTm [3] [K] | dTm [4] [K] | dTm [5] [K] | dTm [6] [K] | dTm [7] [K] | dTm [8] [K] | dTm [9] [K]
Cc1ccc(C(=O)Nc2ccc(CN3CCN(C)CC3)c(C(F)(F)F)c2)cc1C#Cc1cnc2cccnn12 [Ponatinib, reference compound] |  |  | -1.37 |  |  |  |  |  | 16.48
Cn1cc(-c2c[nH]c3ncnc(N4CCOCC4)c23)cc1C#N [PFE-360] | 5.19 | 3.25 | -1.84 | 4.09 |  | 2.32 | 5.46 | 0.89 | 0.68
COc1cc2c(Oc3ccc(NC(=O)C4(C(=O)Nc5ccc(F)cc5)CC4)cc3F)ccnc2cc1OCCCN1CCOCC1 [Foretinib, reference compound] | 14.26 | 4.04 | 0.32 | 0.34 | 0.08 | 1.08 | 3.35 | 2.68 | 
Cc1ccc(C(=O)Nc2ccc(CN3CCN(C)CC3)c(C(F)(F)F)c2)cc1C#Cc1cnc2[nH]ncc2c1 [GZD-824, reference compound] | 9.35 | -2.15 | -1.37 | 3.27 |  | 0.04 | 4.75 | 4.08 | 17.23
CN[C@@H]1C[C@H]2O[C@@](C)([C@@H]1OC)n1c3ccccc3c3c4c(c5c6ccccc6n2c5c31)C(=O)NC4 [Staurosporine] |  |  | 3.20 |  |  | 8.53 |  |  | 
C[C@@H]1CN(c2cc(-c3n[nH]c4ccc(OC5(C)CC5)cc34)ncn2)C[C@H](C)O1 [MLi2] | 0.19 | 0.53 | -0.93 | -0.10 |  | 0.08 | 3.51 | 0.56 | 0.27

Reference: article PMC12136037, “Type II kinase inhibitors that target Parkinson’s disease–associated LRRK2” (Science Advances, 2025)
